Structures are written as SMILES. Values joined by “and” are separate entries in the source; they are usually repeats but may differ in a detail not shown here. Equal values may be shown once. Active and inactive are the calls of the source.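 How the source made its calls: active means mean EC50 of 20 µM or lower; inactive means the rest.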

Sequence of Neurotensin receptor type 2 (Homo sapiens) (O95665 whole entry, looked up): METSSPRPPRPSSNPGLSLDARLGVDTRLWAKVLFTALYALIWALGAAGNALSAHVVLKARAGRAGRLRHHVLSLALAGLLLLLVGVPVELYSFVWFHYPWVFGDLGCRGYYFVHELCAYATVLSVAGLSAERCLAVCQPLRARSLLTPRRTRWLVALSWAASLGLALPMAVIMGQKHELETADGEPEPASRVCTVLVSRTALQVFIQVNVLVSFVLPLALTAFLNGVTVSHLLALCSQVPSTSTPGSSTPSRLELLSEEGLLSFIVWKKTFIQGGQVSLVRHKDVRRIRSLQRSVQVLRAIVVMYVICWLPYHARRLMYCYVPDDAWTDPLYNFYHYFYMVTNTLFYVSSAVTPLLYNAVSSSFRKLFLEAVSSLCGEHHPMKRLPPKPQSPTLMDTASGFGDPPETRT

The assay concerns the target Neurotensin receptor type 2 (Homo sapiens) (UniProt O95665). Nature of the assay: NTR2 agonist activity for selectivity, SAR follow-up, selectivity assay for NTR1 agonist project, imaging, NTR2-U2OS cells, beta-arrestin GFP imaging (AID 588495). The conditions noted are these: image-based GFP translocation.
Usually EC50 stands for the concentration at which the effect is half-maximal. For the compound `CC(C)C[C@H](NC(=O)c1nc(-c2ccncc2)c(-c2ccccc2)s1)C(=O)O`, the EC50 is > 40 µM (inactive). With `Cc1cccc(-n2ncc3c(N4CCN(c5ccccc5)CC4)ncnc32)c1` the figure was > 40 µM (inactive); with `Clc1ccc(-n2ncc3c(N4CCN(c5ccccc5)CC4)ncnc32)cc1`, > 40 µM (inactive); with `CC(C)C[C@H](NC(=O)c1cn(-c2ccnc3cc(Cl)ccc23)c(-c2ccccc2)n1)C(=O)O`, > 40 µM (inactive). Regarding `Cc1cc(Cl)ccc1-n1ncc2c(N3CCN(c4ccccc4)CC3)ncnc21`, the EC50 is > 40 µM (inactive). As for `COc1cc2ncnc(N3CCN(c4ccccc4OC)CC3)c2cc1OC`, the EC50 was > 40 µM (inactive). For `COc1ccccc1-c1nc(C(=O)N[C@@H](CC(C)C)C(=O)O)cn1-c1ccnc2ccccc12` the value was > 40 µM (inactive); for `COc1cc2c3nnc(-c4ccc(Cl)cc4)c-3cn(Cc3ccccc3)c2cc1OC`, 8.38 µM. As to `COc1cc2nc(-c3ccccc3)nc(N3CCN(c4ccccc4)CC3)c2cc1OC`, the EC50 was > 40 µM (inactive). For `CCc1ccc(-c2nnc3c4cc(OC)c(OC)cc4n(Cc4ccc(F)cc4)cc2-3)cc1` the value was “inactive”.

In the case of `COc1cc2nc(C)nc(N3CCN(c4ccccc4OC)CC3)c2cc1OC`, the EC50 was > 40 µM (inactive). Turning to `Cc1ccc(-n2ncc3c(N4CCN(c5ccc([N+](=O)[O-])cc5)CC4)ncnc32)c(C)c1`, the EC50 is > 40 µM (inactive). On to `COc1cc2c3nnc(-c4ccc(C)cc4)c-3cn(Cc3ccc(F)cc3)c2cc1OC`, for which the EC50 is 6.4 µM.

In the case of `CC(C)C[C@H](NC(=O)c1cn(-c2ccnc3cc(Cl)ccc23)c(-c2c(Cl)cccc2Cl)n1)C(=O)O`, the EC50 is > 40 µM (inactive). For `CC(C)C[C@H](NC(=O)c1cn(-c2ccnc3ccccc23)c(-c2ccccc2)n1)C(=O)O` the value was > 40 µM (inactive); for `COc1ccc(Cn2c(SCc3ccccc3C)nc3cc(OC)c(OC)cc3c2=N)cc1Cl`, > 40 µM (inactive). Turning to `CC(=O)c1ccc(N2CCN(c3ncnc4c3cnn4-c3ccc(C)cc3C)CC2)cc1`, the EC50 is > 40 µM (inactive).

`Cc1ccc(/C=N/Nc2nc(-c3ccc(S(=O)(=O)N(C)C)cc3)cs2)cc1`: the EC50 is > 40 µM (inactive). On to `COc1cccc(OC)c1-c1cc(C(=O)O)nn1-c1ccnc2cc(Cl)ccc12`, for which the EC50 was > 40 µM (inactive). In the case of `CC(C)C[C@H](NC(=O)c1cn(-c2ccnc3ccccc23)c2c(OCc3ccccc3)cccc12)C(=O)O`, the EC50 is > 40 µM (inactive). As for `Cc1ccc(-n2ncc3c(N4CCN(c5ccccc5F)CC4)ncnc32)c(C)c1`, the EC50 is > 40 µM (inactive). In the case of `CCOc1ccc(-c2nnc3c4cc(OC)c(OC)cc4n(Cc4ccc(C)cc4)cc2-3)cc1`, the EC50 was > 40 µM (inactive). For the compound `COc1ccc(-c2nnc3c4cc(OC)c(OC)cc4n(Cc4ccc(C)cc4)cc2-3)cc1`, the EC50 was 5.48 µM.

Consider `COc1cccc2c(C(=O)N[C@@H](CC(C)C)C(=O)O)cn(-c3ccnc4cc(Cl)ccc34)c12`, for which the EC50 is > 40 µM (inactive). In the case of `Clc1ccccc1-n1ncc2c(N3CCN(c4ccccc4)CC3)ncnc21`, the EC50 was > 40 µM (inactive). With `COc1ccc(N2CCN(c3ncnc4c3cnn4-c3ccc(C)cc3C)CC2)cc1`, the EC50 is > 40 µM (inactive). For the compound `COc1cccc(OC)c1-c1nc(C(=O)N[C@@H](CC(C)C)C(=O)O)cn1-c1cccc2ccccc12`, the EC50 was > 40 µM (inactive). Regarding `CN(C)S(=O)(=O)c1ccc(-c2csc(N/N=C/c3cccs3)n2)cc1`, the EC50 is > 40 µM (inactive).

Regarding `CCOc1cc2c(N3CCN(c4ccccc4OC)CC3)nc(-c3ccc(OC)c(OC)c3)nc2cc1OC`, the EC50 was > 40 µM (inactive). Regarding `COc1cc2nc(-c3ccccc3)nc(N3CCN(c4ccccc4F)CC3)c2cc1OC`, the EC50 is > 40 µM (inactive). With `COc1cc2c3nnc(-c4ccc(F)cc4)c-3cn(Cc3ccc(C)cc3)c2cc1OC`, the EC50 was 4.14 µM and 3.32 µM. For `Cc1ccc(-n2ncc3c(N4CCN(c5cccc(Cl)c5)CC4)ncnc32)c(C)c1` the value was > 40 µM (inactive). With `Cc1ccc(-n2ncc3c(N4CCN(c5ccccc5)CC4)ncnc32)c(C)c1`, the EC50 was > 40 µM (inactive).

As to `Cc1ccc(C)c(-n2ncc3c(N4CCN(c5ccccc5)CC4)ncnc32)c1`, the EC50 is > 40 µM (inactive). As to `CN(C)S(=O)(=O)c1ccc(-c2csc(N/N=C/c3cccc(Cl)c3)n2)cc1`, the EC50 was > 40 µM (inactive). On to `Cc1ccc(Cn2cc3c(-c4ccc(F)cc4)nnc-3c3cc4c(cc32)OCO4)cc1`, for which the concentration for a half-maximal effect (EC50) was 15.3 µM.

Take `CN(C)S(=O)(=O)c1ccc(-c2csc(N/N=C/c3ccccc3)n2)cc1`: the EC50 was > 40 µM (inactive). For `COc1cc2nc(C3CCC3)nc(N3CCN(c4ccccc4F)CC3)c2cc1OC`, the EC50 was > 40 µM (inactive).

The record behind these values is PubChem BioAssay AID588495 (Sanford-Burnham Center for Chemical Genomics, 2011).
